Results: ChEMBL document CHEMBL1129014, “Crystal receptor models in medicinal chemistry: Application to the generation of highly potent potassium channel openers” (Bioorg Med Chem Lett, 1996)

Species on record: Cavia porcellus
Assay: Inhibitory activity against potassium (15 mM) induced contractions of the guinea pig detrusor smooth muscle.
Format: functional
C[C@]1(C(F)(F)F)CN(c2cccc[n+]2[O-])c2cc(S(=O)(=O)c3ccccc3)ccc2O1 showed an IC50 of 680 nM.
Work on CC1(C)CN(c2cccc[n+]2[O-])c2cc(S(=O)(=O)c3ccccc3)ccc2O1 yielded an IC50 of 4100 nM.
With C[C@](O)(C(=O)Nc1ccc([N+](=O)[O-])cc1)C(F)(F)F the IC50 was 500 nM.
For C[C@@]1(C(F)(F)F)CN(c2cccc[n+]2[O-])c2cc(S(=O)(=O)c3ccccc3)ccc2O1, the IC50 was 280 nM.
For CC1(C)Oc2ccc(C#N)cc2[C@@H](N2CCCC2=O)[C@@H]1O [CROMAKALIM], the IC50 was 600 nM.
In the case of CC1(C(F)(F)F)CN(c2cccc[n+]2[O-])c2cc(S(=O)(=O)c3ccccc3)ccc2O1 (stereo not drawn), the IC50 is reported as 540 nM.
C[C@](O)(C(=O)Nc1ccc(S(=O)(=O)c2ccccc2)cc1)C(F)(F)F showed an IC50 of 1000 nM.
Work on O=[N+]([O-])c1ccc2c(c1)N(c1cccc[n+]1[O-])CC(C(F)F)(C(F)F)O2 yielded an IC50 of 7 nM.
